Measured values from the METLIN SMRT retention time set (Domingo-Almenara et al. 2019).

Assay: gradient 5% acetonitrile 3 min, to 50% in 2 min, to 85% in 15 min, held 3 min, 100 µL/min
Conditions: column: Zorbax Extend-C18 2.1 x 50 mm; eluents: water / acetonitrile, 0.1% formic acid
In short: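 Retention times come from adduct peaks that were picked computationally and then checked by hand. The standards, pure and pooled in mixtures of ~100 molecules, were run on a Zorbax Extend-C18 column (2.1 × 50 mm, 1.8 μm) at 100 μL/min with water and acetonitrile, each with 0.1% formic acid. Detection was by quadrupole time-of-flight mass spectrometry in positive and negative ionization mode, with a dead volume of 40 μL and a dwell volume of 900 μL.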

RP-LC retention time [s]	SMILES
779	O=C(c1csc(S(=O)(=O)N2CCC(C(=O)N3CCc4ccccc43)CC2)c1)N1CCOCC1
746	COc1ccc(NC(=O)C2CCCN(c3cnc4nccnc4c3)C2)cc1Cl (stereo unspecified)
858	CCn1cc(C2=CCN(C(=O)NCc3ccc(OC)cc3)CC2)c2cccnc21
660	O=C(NCc1ccc2c(c1)OCO2)C1CCCN(c2ccnc(-c3ccc(F)cc3)n2)C1 (stereo unspecified)
981	COCCn1cc2c3c(cccc31)CN(C(=O)Nc1ccccc1C(F)(F)F)CC2
622	NC(=O)C1CCN(S(=O)(=O)c2ccc(N3C(=O)CCS3(=O)=O)cc2)CC1
765	O=C(NCc1ccc2c(c1)OCO2)c1ccc2c(c1)NC(=O)C1CCCCN21 (stereo unspecified)
1200	Cc1ccc(-c2nnc(-c3ccccc3)o2)cc1S(=O)(=O)N1CCCCCC1
680	O=C(NCCn1nc(-c2ccco2)ccc1=O)C1CN(c2nc3c(F)cccc3s2)C1
865	COCc1cc(=O)n(CC(=O)Nc2ccc(Cl)cc2)c(N2CCOCC2)n1
608	CCN(CC)CCCNC(=O)C1c2cc(OC)c(OC)cc2C(=O)N2CCc3ccccc3C12 (stereo unspecified)
932	CCn1nccc1-c1cccc(-c2noc(C3CCN(S(=O)(=O)c4ccc(Cl)cc4)CC3)n2)c1
759	Cc1ccc(NC(=O)N2CCC(c3nc(C(=O)N4CCCC4)c(C)o3)CC2)cc1
836	CC1=C(c2ccc(C)cc2)S(=O)(=O)N=C1N1CCCN(C(=O)NC(C)(C)C)CC1
560	O=C(c1ccc(CS(=O)c2ccccc2)o1)N1CCN(c2ccccn2)CC1 (stereo unspecified)
761	Cc1ccccc1NC(=O)NCCCn1c(C(F)(F)F)nc2cccnc21
922	COc1ccc(NC(=O)C2CCN(S(=O)(=O)c3ccc4c(c3)sc(=O)n4C(C)C)CC2)cc1
807	CCn1cc(S(=O)(=O)N2CCCC(c3nnnn3-c3ccccc3)C2)cn1 (stereo unspecified)
645	O=C(NCc1ccncc1)C1CCN(C(=O)c2ncn3c2COC(c2ccc(Cl)cc2)C3)CC1 (stereo unspecified)
1070	O=C(c1ccc(Cl)nc1)N1CCCC1c1nc(-c2cccc(C(F)(F)F)c2)no1 (stereo unspecified)
632	CC(NC(=O)Cn1nc(Cc2cccnc2)c2ccccc2c1=O)c1ccc2c(c1)OCCO2 (stereo unspecified)
703	O=C(Nc1ccccc1)N(Cc1nnc2n1CCCCC2)c1ccc2c(c1)OCO2
805	Cc1ccc(-n2c(N3CCCC(C(=O)NCC4CC4)C3)nc3ccsc3c2=O)cc1 (stereo unspecified)

RP-LC retention time [s]	SMILES
1010	CN1C(=O)COc2ccc(-c3csc(NC(=O)c4ccc(Cl)cc4)n3)cc21
567	CN(C)C[C@@H]1CN(c2ccccn2)C[C@H]1NC(=O)c1ccc2ccccc2n1
659	CCc1ccc2oc(C(=O)NCC(c3ccccc3OC)N(C)C)cc(=O)c2c1 (stereo unspecified)
703	CCC1CCCCN1C(=O)c1cnc2nc(C)ccc2c1Nc1ccc(F)cc1C (stereo unspecified)
709	Cc1ccc(S(=O)(=O)N2CCC3(CC2)NCCN=C3NCc2ccc(F)cc2)cc1
614	Cc1c(Cl)cccc1NC(=O)CCc1ccc2nc[nH]c2c1
679	COc1ccc(C(=O)N2C[C@@H]3C[C@H](NC(=O)c4cccs4)[C@H]2C3)cn1
626	Cc1cccc(NC(=O)CN2CCc3[nH]c4c(C)cc(F)cc4c(=O)c3C2)c1
915	Cc1ccsc1C(=O)NCCC1CCN(C(=O)Nc2cc(F)cc(F)c2)CC1
1040	CCn1cc(-c2nc(CC(=O)Nc3cc(C)ccc3OC)cs2)c2cccnc21
887	CC(C)NC(=O)c1ccc(OCC2CCCN(C(=O)c3ccc(F)cc3Cl)C2)cc1 (stereo unspecified)
1010	O=C(NC1CCCC1)N1CC(Oc2ccccc2-c2nc(-c3ccccc3)no2)C1
658	N#Cc1cnc2ccccc2c1N1CCC(C(=O)N2CCSCC2)CC1
738	COc1cccc(CNC2=NCCNC23CCN(S(=O)(=O)c2ccc(Cl)cc2)CC3)c1
912	CC1=C(c2ccc(C)c(C)c2)S(=O)(=O)N=C1N1CCCN(C(=O)C2CCCC2)CC1
587	CN(Cc1cccnc1)C(=O)c1c(OCC2CC2)cc(=O)n2c1CCCCC2
933	COc1ccc(NC(=O)CSc2cc(NCc3ccccc3Cl)ncn2)c(OC)c1
877	CCOc1ccc(NC(=O)C2CCN(S(C)(=O)=O)c3ccccc3O2)cc1 (stereo unspecified)
818	Cc1cccc(NC(=O)C2CCN(S(=O)(=O)c3cc(C(=O)N4CCCC4)cs3)CC2)c1C
723	O=C(NCc1ccco1)C1CCN(c2cnn(Cc3ccccc3)c(=O)c2)CC1
716	Cc1sc2ccn(C)c(=O)c2c1C(=O)NC1CCCCC1
746	CCCN1CCn2cc(S(=O)(=O)Nc3ccccc3C)cc2C1=O

Further lines, the molecule ahead of its results:

SMILES	RP-LC retention time [s]
CCNS(=O)(=O)c1ccc(Cl)c(-c2nnc(-c3ccccc3)o2)c1	919
CC[C@@H](c1cccc(O)c1)[C@@H](C)CN(C)C	633
CC1=C(CO)C(=O)O[C@@H]([C@@H](C)[C@H]2CCC3[C@@H]4C[C@H]5O[C@]56[C@@H](O)C=CC(=O)[C@]6(C)C4CC[C@@]32C)C1 (stereo partly specified)	759
CSc1nc(N2CCCC2)c2cnn(CCNC(=O)CSc3nnnn3C)c2n1	651
O=C(CSc1nccn1-c1ccc(C(=O)NCc2cccs2)cc1)Nc1ccccc1	671
Cc1nc2ccn(Cc3ccco3)c(=O)c2cc1C(=O)NCCc1c[nH]c2ccccc12	768
COc1ccc(-c2nnc(COc3cccc(NC(=O)c4ccc(C)s4)c3)o2)cc1	988
COCCCNc1nc(-c2ccc(OC)cc2)nc2ccccc12	690
CCOc1ccc(C(=O)NCc2c(C)noc2C)cc1	733
COc1ccc(NC(=O)Cn2c(=O)n(-c3ccc(C)cc3)c(=O)c3c2cc(C)n3C)c(OC)c1	872
CCC1CN2C=Nc3oc(C)c(C(=O)Nc4cccc(C(F)(F)F)c4)c3C2=N1 (stereo unspecified)	719
Cc1nc(-c2cc(S(=O)(=O)Nc3cccc(Cl)c3F)c(C)s2)cs1	1030
Cc1cc(-c2nnc(-c3ccc(F)cc3)o2)c(C)n1CC(=O)Nc1cccc(F)c1	987
CCn1ncc(N2CCCC(CC(=O)N3CCC4(CC3)OCCO4)C2)cc1=O (stereo unspecified)	646
Cc1ccc(NC(=O)Nc2nccn(-c3ccc(C)c(C)c3)c2=O)cc1C	1150
COc1ccc(CC(=O)NCc2c(C)cc(C)nc2-c2ccc(OC)cc2)cc1	708
CCc1nn2c(CNC(=O)c3ccccc3Cl)c(C)nc2s1	650
OCc1nnn(-c2ccccc2)c1CO	642
Cc1sc(C)c(S(=O)(=O)NCc2ccc(N(C)C)cc2)c1-c1cc(C(F)(F)F)on1	960
CCN1CCN(c2ncc3c(n2)CC(C)CC3=O)CC1 (stereo unspecified)	575
CSc1ccc(-c2noc(-c3nn(-c4cccc(Br)c4)ccc3=O)n2)cc1	988

SMILES	RP-LC retention time [s]
CC(C)N1CCn2cc(S(=O)(=O)Nc3cccc(Cl)c3)cc2C1=O	805
Cc1sc(NC(=O)Cc2csc(-c3ccccc3)n2)nc1-c1ccc(F)cc1	1200
CCOc1ccc(-n2ccn3cc(-c4ccc(F)cc4F)nc3c2=O)cc1	916
CCn1cc(SCC(=O)Nc2c(C)cc(C)cc2C)c2ccccc21	998
O=S(=O)(NCCCCN1CCOC(c2ccccc2)C1)c1ccc(F)cc1F (stereo unspecified)	584
Cc1cc(C)n(-c2c(C)c(C)nc3c(-c4ccccc4)cnn23)n1	947
CCc1nc2c(NC(=O)c3ccc(Br)cc3)cccn2n1	914
CCC(CC)N1CCC(F)(c2nc(-c3ccccc3)no2)CC1	704
Cc1ccc(-c2csc(-n3nc(C)c(CC(=O)Nc4ccc(Br)cc4)c3C)n2)cc1	1350
CCn1nccc1-c1cccc(-c2noc(C3CC(=O)N(c4cccc(Cl)c4)C3)n2)c1 (stereo unspecified)	1090
Cc1c(Cl)cccc1S(=O)(=O)NCC(O)c1ccc(C(F)(F)F)cc1 (stereo unspecified)	938
CCN1C(=O)COc2ccc(-c3noc(-c4ccc(Cl)cc4)n3)cc21	1220
COc1cc(CNC(=O)Cn2ccc3c(=O)n(C)c(=O)n(C)c32)cc(OC)c1	662
COc1ccc(NC(=O)c2[nH]c3cc(C)sc3c2CN2CCOCC2)cc1OC	635
O=C1[C@H]2CN(Cc3cc(Cl)ccc3F)C[C@H]2C(=O)N1CCc1ccccc1	840
Cc1cc(C(=O)Nc2ccc(S(C)(=O)=O)cc2)on1	625
Cc1ccc(CNC(=O)Cn2ncn3c(C)c(C(=O)NCc4ccc(C)cc4)c(C)c3c2=O)cc1	851
Fc1cccc(-c2noc(-c3cc(N4CCOCC4)nc4ccccc34)n2)c1	1240
COc1ccc(CNC(=O)Cn2c(C)nc3c(sc4nc(-c5ccccc5)ccc43)c2=O)cc1	970
Cc1c(-c2noc(-c3ccc4c(c3)OCO4)n2)nnn1Cc1ccc(F)cc1	999
